This passage reports Activity and EC50 results from ChEMBL document CHEMBL3132791, “Improved synthesis of 4-/6-substituted 2-carboxy-1H-indole-3-propionic acid derivatives and structureactivity relationships as GPR17 agonists” (Medchemcomm, 2014).

The structures appear in SMILES notation. Activity calls are given as the source filed them. The rule behind the calls is not given here.

In general, EC50 refers to the concentration needed to bring the measured effect to its halfway point.

T1 sequence (Q13304 whole entry): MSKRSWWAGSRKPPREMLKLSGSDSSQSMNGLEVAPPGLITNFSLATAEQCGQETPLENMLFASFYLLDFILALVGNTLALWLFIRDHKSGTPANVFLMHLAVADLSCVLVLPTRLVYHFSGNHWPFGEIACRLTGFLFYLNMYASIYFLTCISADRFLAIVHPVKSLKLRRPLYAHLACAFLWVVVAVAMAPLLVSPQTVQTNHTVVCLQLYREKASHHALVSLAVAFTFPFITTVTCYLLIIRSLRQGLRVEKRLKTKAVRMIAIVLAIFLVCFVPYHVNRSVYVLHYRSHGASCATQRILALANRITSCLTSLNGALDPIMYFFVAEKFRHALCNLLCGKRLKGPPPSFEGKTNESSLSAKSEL

The first experiment concerns the target T1, Uracil nucleotide/cysteinyl leukotriene receptor (Homo sapiens, UniProt Q13304). The experiment is described as follows: Antagonist activity at human GPR17 receptor transfected in 1321N1 astrocytoma cells assessed as intracellular calcium mobilization by flurometric assay. Type of experiment: functional, cell-based.
As for `COc1cc(OC)c2c(CCC(=O)O)c(C(=O)O)[nH]c2c1`, the result was inactive.

In another experiment the target is T1, Uracil nucleotide/cysteinyl leukotriene receptor. The experiment in a line: Agonist activity at human GPR17 receptor transfected in 1321N1 astrocytoma cells assessed as induction of intracellular calcium mobilization by fluorimetric assay. The experiment is classed as functional, cell-based. Background: Calcium flux is commonly read through the fluorescence of an indicator in the cells.
Consider `O=C(O)CCc1c(C(=O)O)[nH]c2cc(Br)cc(Br)c12`, for which the EC50 came out at 0.202 µM.
Still for that read-out and setting: the figure for `O=C(O)CCc1c(C(=O)O)[nH]c2cc(C(F)(F)F)cc(C(F)(F)F)c12` is 17.1 µM; for `O=C(O)CCc1c(C(=O)O)[nH]c2cc(Br)ccc12` it is 2.24 µM; for `O=C(O)CCc1c(C(=O)O)[nH]c2cccc(Br)c12` it is 45.5 µM.
The same measure, in the same setting: the figure for `COc1cc(OC)c2c(CCC(=O)O)c(C(=O)O)[nH]c2c1` is more than 100 µM.
For `O=C(O)CCc1c(C(=O)O)[nH]c2cc(Cl)c(F)c(Cl)c12`, the EC50 amounted to 52 µM.
The same measure, in the same setting: the value for `O=C(O)CCc1c(C(=O)O)[nH]c2cccc(I)c12` was 36.8 µM.
Take `O=C(O)CCc1c(C(=O)O)[nH]c2cc(Cl)cc(Cl)c12`: the concentration for a half-maximal effect (EC50) is 0.331 µM.
